Data: PubChem BioAssay AID2060624 (Molecular Pharmacology Branch, DTP, NCI, 2025)

System: 217524-143-R1-J4-PDC spheroids with HUVEC/MSC, viability
Assay: Anticancer human tumor 217524-143-R1-J4-PDC patient-derived pancreatic carcinoma cell line growth inhibition [CLK]
Settings: for IC50: curve of first compound; for viability, T/C: stronger effect = lower value
Text: A high-throughput screen of multi-cell type tumor spheroids was designed to identify active combinations of […] and targeted small molecules. Complex spheroids include a stromal component modeled by human endothelial cells (HUVEC) and fibroblasts modeled by human mesenchymal stem cells (MSCs). The concentration ranges selected for each drug and investigational agent were based upon clinically achievable concentrations if the clinical Cmax of the agent was known.
Compounds. The drugs and investigational agents: cirtuvivint (SM08502; NSC835563), CC-671 (NSC850746), vemurafenib (NSC761431), tapotoclax (NSC804041), sotorasib (NSC818433), adagrasib (NSC831453), MRTX-1133 (NSC836407), BAY2416964 (NSC825713), copanlisib (NSC816437), inavolisib (NSC800729), abemaciclib (NSC768073), osimertinib (NSC779217), entinostat (NSC756642), eltanexor (KPT-8602, NSC794443), venetoclax (NSC766270), ceralasertib (NSC777638), bortezomib (NSC756655), olaparib (NSC753686), talazoparib (NSC767125), alisertib (NSC759677), peposertib (NSC802822), gemcitabine (NSC613327), 5-fluorouracil (NSC19893), SN-38 (NSC673596), oxaliplatin (NSC266046), paclitaxel (NSC125973), and doxorubicin (NSC123127), were obtained from the National Cancer Institute (NCI) Developmental Therapeutics Program Chemical Repository. The FDA-approved anticancer drug set is available from the Developmental Therapeutics Program at https://dtp.cancer.gov/organization/dscb/obtaining/available plates.htm. […] The stock solutions were prepared in dimethyl sulfoxide (DMSO, Sigma-Aldrich, St. Louis, MO, cat. D2650), except for the platinum complexes which were prepared in saline (Quality Biological, Gaithersburg, MD, cat. 114-055-101), at 800-fold the tested concentration and stored at -70 degrees C prior to their use. All drugs and investigational agents were tested over a range starting from a high concentration at or near the clinical Cmax and decreasing in half-log increments. If the clinical Cmax for an agent had not been determined, the highest concentration tested was 10 microM.
Cell Culture. All cells were maintained in an incubator at 37 degrees C and 5% CO2 with 95% humidity. The PDC lines were cultured according to standard operating procedures established by the NCI PDMR. Briefly, all PDCs were thawed and cultured in Matrigel-coated flasks prepared with a working solution of 1X Ham's F-12 nutrient mix, without supplementation (Invitrogen, Waltham, MA, cat. 11765054), 100 U/mL penicillin-streptomycin (Invitrogen, cat. 15140122), and 2.5% Matrigel (Corning Inc., Corning, NY, cat. 354248) for the first three passages. The 947758-054-R-J2-PDC line was cultured in 6B/Colon 1A media, which includes advanced DMEM/F-12 (Thermo Fisher Scientific, cat. 12634028), 10 mM HEPES (Thermo Fisher Scientific, cat. 15630080), 1X GlutaMAX supplement (Thermo Fisher Scientific, cat. 35050061), 0.1 mg/mL primocin (InvivoGen, cat. ant-pm-2), 10% defined fetal bovine serum, heat inactivated (HyClone Laboratories Inc., cat. SH30070.03HI), 1.25 mM N-Acetyl-L-cysteine (Sigma-Aldrich, cat. A9165), 10 mM nicotinamide (Sigma-Aldrich, cat. N0636), 1X B-27 supplement (Thermo Fisher Scientific, cat. 17504044), 1X N-2 supplement (Thermo Fisher Scientific, cat. 17502048), and 10 microM Y-27632 dihydrochloride (Tocris Bioscience, cat. 1254). The 876862-298-R-J1-PDC was cultured in 6E media, which includes all 6B/Colon 1A media components plus 50% L-WRN conditioned media (ATCC, cat. CRL-3276), 50 ng/mL recombinant human EGF recombinant protein (hEGF; Thermo Fisher Scientific, cat. PHG0311), 10 ng/mL recombinant human fibroblast growth factor 10 (hGFG-10; PeproTech, cat. 100-26), 1 ng/mL recombinant human fibroblast growth factor 2 (hFGF-2; PeproTech, cat. 100-18B), and 1 µM prostaglandin E2 (PGE2; Tocris, cat. 2296). The 227483-062-R1-J1-PDC line was cultured in Panc media, containing all 6E components except hFGF-2, with the addition of 500 nM SB-431542 (Selleckchem, cat. S1067) and 10 nM gastrin (Tocris, cat. 3006). […]

[1] = second compound 0.0316 µM, first compound 0.0316 µM
[2] = second compound 0.0316 µM, first compound 0.1 µM
[3] = second compound 0.0316 µM, first compound 0.316 µM
[4] = second compound 0.0316 µM, first compound 1 µM
[5] = second compound 0.1 µM, first compound 0.0316 µM
[6] = second compound 0.1 µM, first compound 0.1 µM
[7] = second compound 0.1 µM, first compound 0.316 µM
[8] = second compound 0.1 µM, first compound 1 µM
[9] = second compound 0.316 µM, first compound 0.0316 µM
[10] = second compound 0.316 µM, first compound 0.1 µM
[11] = second compound 0.316 µM, first compound 0.316 µM
[12] = second compound 0.316 µM, first compound 1 µM
[13] = second compound 1 µM, first compound 0.0316 µM
[14] = second compound 1 µM, first compound 0.1 µM
[15] = second compound 1 µM, first compound 0.316 µM
[16] = second compound 1 µM, first compound 1 µM
[17] = second compound 3.16 µM, first compound 0.0316 µM
[18] = second compound 3.16 µM, first compound 0.1 µM
[19] = second compound 3.16 µM, first compound 0.316 µM
[20] = second compound 3.16 µM, first compound 1 µM
[21] = second compound 10 µM, first compound 0.0316 µM
[22] = second compound 10 µM, first compound 0.1 µM
[23] = second compound 10 µM, first compound 0.316 µM
[24] = second compound 10 µM, first compound 1 µM
[25] = second compound 0.0316 µM, first compound 0.00316 µM
[26] = second compound 0.0316 µM, first compound 0.01 µM
[27] = second compound 0.1 µM, first compound 0.00316 µM
[28] = second compound 0.1 µM, first compound 0.01 µM
[29] = second compound 0.316 µM, first compound 0.00316 µM
[30] = second compound 0.316 µM, first compound 0.01 µM
[31] = second compound 1 µM, first compound 0.00316 µM
[32] = second compound 1 µM, first compound 0.01 µM
[33] = second compound 3.16 µM, first compound 0.00316 µM
[34] = second compound 3.16 µM, first compound 0.01 µM
[35] = second compound 10 µM, first compound 0.00316 µM
[36] = second compound 10 µM, first compound 0.01 µM
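Further: spheroids exposed to agents for seven days before reading.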
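Wherever viability, T/C is given: 100% = DMSO vehicle control viability.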

SMILES: CC(Nc1ccc2c(c1)OCCn1cc(N3C(=O)OCC3C(F)F)nc1-2)C(N)=O (stereo unspecified) + CN1CCN(c2cc(C(=O)Nc3cc4cc(-c5cnn(C)c5)ccc4cn3)ccn2)CC1
- IC50 (second compound 0.0316 µM): 61.8 nM
- IC50 (second compound 0.1 µM): < 31.6 nM
- IC50 (second compound 0.316 µM): < 31.6 nM
- IC50 (second compound 1 µM): < 31.6 nM
- IC50 (second compound 3.16 µM): < 31.6 nM
- IC50 (second compound 10 µM): < 31.6 nM
- viability, T/C [1]: 75.1%
- viability, T/C [2]: 30.5%
- viability, T/C [3]: 16.9%
- viability, T/C [4]: 6.57%
- viability, T/C (second compound 0.0316 µM, first compound 3.16 µM): 5.62%
- viability, T/C (second compound 0.0316 µM, first compound 10 µM): 3.9%
- viability, T/C [5]: 40.8%
- viability, T/C [6]: 24.6%
- viability, T/C [7]: 10.2%
- viability, T/C [8]: 5.26%
- viability, T/C (second compound 0.1 µM, first compound 3.16 µM): 4.73%
- viability, T/C (second compound 0.1 µM, first compound 10 µM): 3.98%
- viability, T/C [9]: 19.2%
- viability, T/C [10]: 9.36%
- viability, T/C [11]: 6.98%
- viability, T/C [12]: 4.68%
- viability, T/C (second compound 0.316 µM, first compound 3.16 µM): 3.77%
- viability, T/C (second compound 0.316 µM, first compound 10 µM): 3.27%
- viability, T/C [13]: 2.47%
- viability, T/C [14]: 1.63%
- viability, T/C [15]: 1.31%
- viability, T/C [16]: 1.2%
- viability, T/C (second compound 1 µM, first compound 3.16 µM): 1.03%
- viability, T/C (second compound 1 µM, first compound 10 µM): 0.93%
- viability, T/C [17]: 0.62%
- viability, T/C [18]: 0.64%
- viability, T/C [19]: 0.73%
- viability, T/C [20]: 0.58%
- viability, T/C (second compound 3.16 µM, first compound 3.16 µM): 0.75%
- viability, T/C (second compound 3.16 µM, first compound 10 µM): 0.64%
- viability, T/C [21]: 0.11%
- viability, T/C [22]: 0.18%
- viability, T/C [23]: 0.18%
- viability, T/C [24]: 0.13%
- viability, T/C (second compound 10 µM, first compound 3.16 µM): 0.27%
- viability, T/C (second compound 10 µM, first compound 10 µM): 0.2%

SMILES: CCN1CCN(Cc2ccc(Nc3ncc(F)c(-c4cc(F)c5nc(C)n(C(C)C)c5c4)n3)nc2)CC1 + CN1CCN(c2cc(C(=O)Nc3cc4cc(-c5cnn(C)c5)ccc4cn3)ccn2)CC1
- IC50 (second compound 0.0316 µM): 224 nM
- IC50 (second compound 0.1 µM): 11 nM
- IC50 (second compound 0.316 µM): < 3.16 nM
- IC50 (second compound 1 µM): < 3.16 nM
- IC50 (second compound 3.16 µM): < 3.16 nM
- IC50 (second compound 10 µM): < 3.16 nM
- viability, T/C [25]: 93.3%
- viability, T/C [26]: 62.5%
- viability, T/C [1]: 71.2%
- viability, T/C [2]: 60%
- viability, T/C [3]: 41%
- viability, T/C [4]: 44.6%
- viability, T/C [27]: 55.3%
- viability, T/C [28]: 53.4%
- viability, T/C [5]: 44.8%
- viability, T/C [6]: 39%
- viability, T/C [7]: 29.1%
- viability, T/C [8]: 32.6%
- viability, T/C [29]: 23.3%
- viability, T/C [30]: 21.7%
- viability, T/C [9]: 17.6%
- viability, T/C [10]: 17.6%
- viability, T/C [11]: 15.8%
- viability, T/C [12]: 17.1%
- viability, T/C [31]: 2.31%
- viability, T/C [32]: 2.94%
- viability, T/C [13]: 2.53%
- viability, T/C [14]: 3.19%
- viability, T/C [15]: 3.76%
- viability, T/C [16]: 3.89%
- viability, T/C [33]: 0.74%
- viability, T/C [34]: 0.96%
- viability, T/C [17]: 1.42%
- viability, T/C [18]: 1.28%
- viability, T/C [19]: 3%
- viability, T/C [20]: 4.17%
- viability, T/C [35]: 0.23%
- viability, T/C [36]: 0.28%
- viability, T/C [21]: 0.27%
- viability, T/C [22]: 0.28%
- viability, T/C [23]: 0.46%
- viability, T/C [24]: 0.58%

SMILES: COc1c(OCCCN2CCOCC2)ccc2c3n(c(=NC(=O)c4cnc(N)nc4)nc12)CCN3 + CN1CCN(c2cc(C(=O)Nc3cc4cc(-c5cnn(C)c5)ccc4cn3)ccn2)CC1
- IC50 (second compound 0.0316 µM): 6.3 nM
- IC50 (second compound 0.1 µM): < 3.16 nM
- IC50 (second compound 0.316 µM): < 3.16 nM
- IC50 (second compound 1 µM): < 3.16 nM
- IC50 (second compound 3.16 µM): < 3.16 nM
- IC50 (second compound 10 µM): < 3.16 nM
- viability, T/C [25]: 72.3%
- viability, T/C [26]: 35.1%
- viability, T/C [1]: 8.37%
- viability, T/C [2]: 4.22%
- viability, T/C [3]: 3.38%
- viability, T/C [4]: 2.18%
- viability, T/C [27]: 40.3%
- viability, T/C [28]: 24.1%
- viability, T/C [5]: 7.97%
- viability, T/C [6]: 4.61%
- viability, T/C [7]: 2.58%
- viability, T/C [8]: 2.72%
- viability, T/C [29]: 18.8%
- viability, T/C [30]: 12.1%
- viability, T/C [9]: 5.45%
- viability, T/C [10]: 3.87%
- viability, T/C [11]: 2.75%
- viability, T/C [12]: 2.26%
- viability, T/C [31]: 2.94%
- viability, T/C [32]: 1.77%
- viability, T/C [13]: 1.27%
- viability, T/C [14]: 1.02%
- viability, T/C [15]: 0.59%
- viability, T/C [16]: 0.49%
- viability, T/C [33]: 0.65%
- viability, T/C [34]: 0.68%
- viability, T/C [17]: 0.5%
- viability, T/C [18]: 0.47%
- viability, T/C [19]: 0.5%
- viability, T/C [20]: 0.45%
- viability, T/C [35]: 0.14%
- viability, T/C [36]: 0.14%
- viability, T/C [21]: 0.19%
- viability, T/C [22]: 0.13%
- viability, T/C [23]: 0.25%
- viability, T/C [24]: 0.19%
